The values that follow come from patent US5670520A, “Method for inhibiting virus replication in mammalian cells using carbostyil derivatives” (Otsuka Pharmaceutical Co., Ltd., priority 1996, dated 1997).

SMILES strings stand for the structures.

Series [1] deals with HIV-1 strain 18c (AZT-resistant). In words: HIV-1 p24 antigen production by infected PBMC, strain 18c. The series is classed as cell-based. Particulars: Human immunodeficiency virus 1, 120 h; 18c infected PBMC, 5 days, AZT alone. On the procedure:
(§1) More specifically, PBMC were incubated for 48 hr with 3.0 μg/ml of PHA and 10 U/ml of IL-2. Then, 10-100 TCID50 virus/ml of clinical isolate strains of HIV-1, 18a (AZT-sensitive) or 18c (AZT-resistant), were added. […] After 5 days of infection, the supernatant was collected and HIV-1 p24 antigen was measured using the p24 ELISA kit (NEN Dupont).
(§2) The combination index (CI) was calculated using multiple drug effect analysis of Chou and Tala, as described by Johnson et al, J. Infect. Dis., 159:837-844 (1989). CI values of <1, =1, and >1, indicate synergism, additive effects, and antagonism, respectively.

In series [2] the test system is U937 cells. In words: Intracellular AZT-MP, AZT-DP, AZT-TP in U937 cells by HPLC. The note with it: U937 cells, 5.0 μCi/ml [3H]AZT, 2 hr. On the procedure: 1.0 ml fractions were collected, and the radioactivity was measured by liquid scintillation. The retention time for AZT and AZT-MP was confirmed using cold AZT and AZT-MP (Sigma) under the same conditions.
Intracellular concentrations of [^3 H]AZT-MP, [^3 H]AZT-DP, and [^3 H]AZT-TP were measured using HPLC as described above.

Series [3] deals with HIV-1 strain 18a (AZT-sensitive). Nature of the series: microbe, parasite or virus in culture. Particulars: Human immunodeficiency virus 1, PBMC, 120 h, read-out: IC50, p24 production. On the procedure: as §1, §2
The nature of series [4]: MTT cell viability of MRC5 cells. The class given is cell-based. The note with it: human, mrc5 cells, read-out: MTT Cell Viability (% of control). On the procedure: More specifically, 5.0 μg/ml of MTT in Eagles MEM supplemented with 2.0% (v/v) fetal bovine serum was added to each well, and incubated at 37° C. for 6 hr. The cells were then solubilized by adding 30% (w/v) SDS in 0.02N HCl. The cultures were incubated overnight at 37° C. Then, the optical density was measured at 570 nm on a spectrophotometer.

The next series deals with CMV strain AD169. In words: CMV plaque reduction assay in MRC5 cells. The series is classed as cell-based. The note with it: Human betaherpesvirus 5, AD169, MRC5, 168 h; single compound assay, regression analysis; read-out: MIC50 (minimum concentration that reduces plaque production by 50%). On the procedure:
More specifically, subconfluent monolayers of MRC5 cells (Biowhittaker, Walkersville, Md.) in 12-well tissue culture plates were exposed to a suspension of a 1:500 dilution of stock virus (CMV strain AD169; ATCC No. VR-538) in Eagles Minimal Essential Medium (MEM) supplemented with 2.0% (v/v) fetal bovine serum, for 2 hr at 37° C. to allow for virus absorption. The fluid containing unabsorbed virus was then removed, and the cell layer rinsed with Eagles MEM without serum.
The minimum compound concentration that reduces plaque production by 50% (MIC50) was calculated from single compound assays by using a regression analysis program for semilog curve fitting.
The following formula of additivity, which is appropriate for inhibitors affecting different sites, was used.

In the next series the test system is EBV. In words: In situ hybridization of EBV DNA in anti-IgG stimulated DMSO-released Akata cells. The series is classed as cell-based, Epstein-Barr virus. The note with it: 20 hrs after 50 μg/ml anti-IgG; vesnarinone 0-100 μg/ml; acyclovir pretreatment. On the procedure: The human Burkitt's lymphoma cell line, Akata, provided by Dr. Kenzo Takada (Takada, Int. J. Cancer, 33:27-32 (1984); and Takada et al, Virus Genes, 5:147-156 (1991)), was cultured at 37° C. in RPMI 1640 medium supplemented with 15% (v/v) heat-inactivated FCS, and 20 μg/ml gentamicin.
The cell progression of Akata cells was arrested by culturing of the cells for 96 hrs in the presence of 1.5% (y/v) DMSO (Sigma, St. Louis, Mo.) (Sawai et al, Exp. Cell Res., 187:4-10 (1990); and Takase et al, Cell Growth Differ., 3:515-521 (1992)).
1 hr after transfer (release from DMSO), a goat F(ab')2 fragment of anti-human IgG antibody (Organon Teknika, Durham, N.C.) was added at a concentration of 50 μg/ml to induce productive EBV replication (Takagi et al, Virology, 185:309-315 (1991)).
3 hrs and 20 hrs after treatment with the anti-IgG, the cells were harvested for flow cytometric detection of the BamHI Z replication activator (ZEBRA), and for in situ detection of EBV DNA, respectively. […]
More specifically, cells coated on a glass slide were fixed in acetone at room temperature for 10 min. […] Positivity for EBV DNA was determined by the presence of red-colored grains and at least 1000 cells were examined under light microscopy. […]

Series [5] concerns human T cells. Nature of the series: 30 min [3H]thymidine, [3H]uridine and [3H]amino acid incorporation. The class given is cell-based. Particulars: 30 min label; 250 μM vesnarinone, 15 nM aphidicolin or 100 μM deferoxamine. On the procedure:
Next, the PHA-stimulated T cells were labelled for 30 min with 5.0 μCi/ml of an [^3 H]amino acid mixture (1.0 mCi/ml, Amersham, Arlington Heights, Ill.), washed twice with ice-cold PBS, and then lysed in PBS containing 1.0% (w/v) SDS, followed by addition of a mixture of 7.0% (w/v) trichloroacetic acid and 1.0% (w/v) pyrophosphate. The precipitates were loaded on GF/A filters, and washed extensively with a mixture of 7.0% (w/v) trichloroacetic acid and 1.0% (w/v) pyrophosphate. Radioactivity was measured by scintillation counting.

Series [6] relates to human T cells. Nature of the series: [3H]thymidine incorporation by PHA-stimulated human T cells. The class given is cell-based. Particulars: 10 μg/ml PHA 48 hrs; 15 nM aphidicolin or 100 μM deferoxamine (FIG. 1B). On the procedure:
More specifically, human primary T cells were separated from peripheral blood obtained by leukopheresis of healthy donors. Mononuclear cell suspensions were prepared by Ficoll-Hypaque gradient centrifugation, and T cells were obtained by E-rosette enrichment as described by Kumagai et al, J. Cell. Physiol., 137:329 (1988).
Then, 1.0 μCi of [^3 H]thymidine (6.7 Ci/mmole, ICN), was added to 2.0×10^6 cells (100 μl), and the cells were pulse-labeled for 6 hrs.

Series [7] relates to nucleoside and nucleobase transport in human T cells. Nature of the series: [3H]nucleoside / [3H]nucleobase transport, 1 min pulse, T cells. The class given is cell-based. Particulars: 250 μM vesnarinone, 100 μM deferoxamine, 15 nM aphidicolin or 1.0 μM dipyridamole.
Series [8] relates to human T cells. Nature of the series: Cell numbers of PHA-stimulated human T cells over 120 hrs. The series is classed as cell-based. The note with it: 10 μg/ml PHA, 0-120 hrs; 250 μM vesnarinone, 15 nM aphidicolin or 100 μM deferoxamine. On the procedure:
Next, the effects of the above-described drugs on cell proliferation were evaluated over a period of 120 hrs.

Series [9] concerns CHO cells. Nature of the series: Rescue of CHO cells from cytostatic effects of 5-FUd. The note with it: 50 nM 5-FUd, 120 hrs; 0-250 μM vesnarinone or 1.0-10 μM dipyridamole. The series is classed as cell-based, Chinese hamster. The source says:
Nucleoside transport inhibitors, such as dipyridamole or NBMPR, are known to rescue cell proliferation from the cytotoxic effects of 5-fluorouridine(5-FUd) or high dose thymidine, by inhibiting transport of this cytotoxic nucleoside analog or thymidine (Aronow et al, Mol. Cell Biol., 6:2957-2962 (1986)).

The test system of series [10] is CHO cells. In words: [3H]adenosine / [3H]adenine transport in CHO cells. The note with it: 0-750 μM vesnarinone or 0-100 μM dipyridamole, 1 min pulse.
The next series concerns Raji cells. Nature of the series: [3H]adenosine / [3H]adenine transport in Raji cells. The note with it: 0-750 μM vesnarinone or 0-100 μM dipyridamole, 1 min pulse.
The subject of series [11] is U937 cells. Nature of the series: [3H]thymidine uptake in U937 cells within 1 min. The class given is cell-based, human. On the procedure: Dipyridamole was prepared as a 50 mM stock solution dissolved in ethanol.
For series [12] the following is noted: in vivo; cited from earlier work.
Series [13] concerns U937 cells. In words: Intracellular phosphorylated AZT in U937 cells (DEAE filter). The note with it: 0-250 μM vesnarinone or 0-100 nM dipyridamole; 2 hr.

A word on the IC50: it is the concentration at which inhibition is half-maximal. As for `Cc1cn([C@H]2C[C@H](N=[N+]=[N-])[C@@H](CO)O2)c(=O)[nH]c1=O` [AZT, 3'azido-3'-deoxythymidine], the IC50 was more than 0.64 µM in series [1] and 0.00067 µM in series [3]. Moreover, the “intracellular phosphorylation of AZT” value with U937 cells [2] is given as “phosphorylated to AZT-MP, but poorly phosphorylated beyond this stage to the diphosphate form”.
Broadly, the viability is a read-out of living cells in per cent, often relative to untreated cells. In the case of `Nc1nc2c(ncn2COC(CO)CO)c(=O)[nH]1` [DHPG, 9-(1,3-dihydroxy-2-propoxymethyl) guanine, reference compound], the viability at 0.625 µM in series [4] (DHPG 0.625 μM alone) stood at 100%. The viability at 1.25 µM in series [4] (DHPG 1.250 μM alone) is 100%. Further, the viability at 5 µM in [4] (DHPG 5.000 μM alone) amounted to 100%. Further, the EC50 with CMV strain AD169 was more than 5 µM.
On to `Nc1nc2c(ncn2COCCO)c(=O)[nH]1` [acyclovir, 9-[(2-hydroxyethoxy)methyl]guanine, reference compound], for which the “population of EBV producing cells (positivity for EBV DNA)” value with EBV is given as “dramatically reduced by acyclovir pretreatment”.
For the molecule `C[C@@]1(CO)[C@H](O)CC[C@@]2(C)[C@H]1CC[C@H]1C[C@@H]3C[C@@]12CC[C@]3(O)CO` [aphidicolin], the “[3H]uridine incorporation, brief exposure” value in the series on human T cells [5] was “did not inhibit [^2 H]uridine incorporation”. For the same molecule, in the series with human T cells [6], the “[3H]thymidine incorporation” value is “also inhibited [^3 H]thymidine incorporation”. Moreover, in series [7], the “transport of [3H]thymidine, [3H]adenosine, [3H]adenine, [3H]uracil” value (from here on “transport of [3H]thymidine”) is listed as “had no effect on the transport of these nucleosides or nucleobases”. In the series with human T cells [8], the “cell proliferation (cell number)” value was “no increases in cell number were observed”.
As for `CC(=O)N(O)CCCCCNC(=O)CCC(=O)N(O)CCCCCNC(=O)CCC(=O)N(O)CCCCCN` [deferoxamine], in the series on human T cells [5], the “[3H]thymidine incorporation, brief exposure” value is “only partially inhibited [^3 H]thymidine incorporation” and the “[3H]uridine incorporation, brief exposure” value is “did not inhibit [^2 H]uridine incorporation”. The “[3H]thymidine incorporation” value in the series with human T cells [6] was “also inhibited [^3 H]thymidine incorporation”. The “transport of [3H]thymidine” value in series [7] was “had no effect on the transport of these nucleosides or nucleobases”. In addition, the “cell proliferation (cell number)” value in the series with human T cells [8] was “no increases in cell number were observed”.
Consider `OCCN(CCO)c1nc(N2CCCCC2)c2nc(N(CCO)CCO)nc(N3CCCCC3)c2n1` [dipyridamole, reference compound], for which the “reversal of cytostatic effects of 5-FUd (cell number)” value with CHO cells [9] was “significantly reversed the cytostatic effects of 5-FUd”. Also, the “[3H]adenosine and [3H]adenine transport” value in the series on CHO cells [10] and in the series with Raji cells was “inhibited adenosine transport in a selective fashion with no effect on adenine transport in its therapeutic range” each time. Besides, in the series with U937 cells [11] (0-250 μM vesnarinone or 0-1000 nM dipyridamole), the uptake of thymidine entry is given as “inhibited the uptake of thymidine in a dose-dependent manner”. The same molecule yielded a 50% inhibitory concentration (IC50) in the series on U937 cells [11] (Homo sapiens, U-937, 1 min, U937 cells, within 1 min) of less than 0.01 µM. For the same molecule, the therapeutic range in series [12] is 10 to 100 nM. In addition, in series [7], the “transport of [3H]thymidine” value is listed as “suppressed nucleoside transport, but not nucleobase transport”. Also, the “intracellular concentration of phosphorylated AZT” value in the series on U937 cells [13] is “did not affect intracellular concentrations of phosphorylated AZT”.
